Source: the NIST ThermoML archive (doi:10.1021/je049743g)
Values joined by “and” are separate entries in the source; they are usually repeats but may differ in a detail not shown here. Equal entries are not always repeated. Numbers after ± are expanded uncertainties.

Assay: wn = mass fraction of the nth substance listed
Conditions: Capillary rise

FC(C(F)(F)F)C(F)(F)F [1,1,1,2,3,3,3-heptafluoropropane] + FCF
Conditions	surface tension liquid-gas
293.83 K, w2 = 0.3843	6.74 ± 0.3 mN/m
293.91 K, w2 = 0.7179	7.04 ± 0.3 mN/m and 7.05 ± 0.3 mN/m
295.16 K, w2 = 0.3381	6.6 ± 0.3 mN/m
295.43 K, w2 = 0.2853	6.55 ± 0.3 mN/m
295.48 K, w2 = 0.2853	6.53 ± 0.3 mN/m
295.5 K, w2 = 0.7173	6.81 ± 0.3 mN/m and 6.83 ± 0.3 mN/m
295.61 K, w2 = 0.5282	6.53 ± 0.3 mN/m
296.02 K, w2 = 0.3832	6.41 ± 0.3 mN/m and 6.4 ± 0.3 mN/m
296.82 K, w2 = 0.3372	6.36 ± 0.3 mN/m
297.36 K, w2 = 0.3826	6.2 ± 0.3 mN/m
297.42 K, w2 = 0.2844	6.35 ± 0.3 mN/m and 6.32 ± 0.3 mN/m
297.68 K, w2 = 0.5271	6.29 ± 0.3 mN/m
297.86 K, w2 = 0.3366	6.21 ± 0.3 mN/m
299.17 K, w2 = 0.3817	6.01 ± 0.3 mN/m
299.22 K, w2 = 0.2835	6.13 ± 0.3 mN/m and 6.1 ± 0.3 mN/m
299.29 K, w2 = 0.3358	6.06 ± 0.3 mN/m and 6.07 ± 0.3 mN/m
299.5 K, w2 = 0.7156	6.17 ± 0.3 mN/m
299.8 K, w2 = 0.5259	6.04 ± 0.3 mN/m and 6.03 ± 0.3 mN/m
301.27 K, w2 = 0.3346	5.76 ± 0.3 mN/m
301.41 K, w2 = 0.2825	5.8 ± 0.3 mN/m and 5.82 ± 0.3 mN/m
301.58 K, w2 = 0.5249	5.78 ± 0.3 mN/m and 5.77 ± 0.3 mN/m
301.63 K, w2 = 0.7146	5.9 ± 0.3 mN/m
301.75 K, w2 = 0.3803	5.66 ± 0.3 mN/m and 5.69 ± 0.3 mN/m
303.27 K, w2 = 0.3335	5.52 ± 0.3 mN/m
303.33 K, w2 = 0.3795	5.49 ± 0.3 mN/m and 5.54 ± 0.3 mN/m
303.46 K, w2 = 0.2815	5.55 ± 0.3 mN/m
303.55 K, w2 = 0.7137	5.59 ± 0.3 mN/m
303.87 K, w2 = 0.5235	5.48 ± 0.3 mN/m and 5.44 ± 0.3 mN/m
305.17 K, w2 = 0.3785	5.35 ± 0.3 mN/m and 5.33 ± 0.3 mN/m
305.26 K, w2 = 0.3323	5.3 ± 0.3 mN/m and 5.29 ± 0.3 mN/m
305.28 K, w2 = 0.2805	5.35 ± 0.3 mN/m and 5.37 ± 0.3 mN/m
305.75 K, w2 = 0.7126	5.34 ± 0.3 mN/m
306.29 K, w2 = 0.5221	5.16 ± 0.3 mN/m and 5.13 ± 0.3 mN/m
307.23 K, w2 = 0.3774	5.01 ± 0.3 mN/m and 5.06 ± 0.3 mN/m
307.24 K, w2 = 0.3311	5.08 ± 0.3 mN/m
307.36 K, w2 = 0.7118	5.04 ± 0.3 mN/m
307.39 K, w2 = 0.5214	4.94 ± 0.3 mN/m
307.96 K, w2 = 0.2792	5.04 ± 0.3 mN/m and 5.05 ± 0.3 mN/m
309.18 K, w2 = 0.3299	4.8 ± 0.3 mN/m
309.34 K, w2 = 0.2785	4.87 ± 0.3 mN/m and 4.85 ± 0.3 mN/m
309.43 K, w2 = 0.7107	4.7 ± 0.3 mN/m
309.63 K, w2 = 0.3761	4.63 ± 0.3 mN/m and 4.67 ± 0.3 mN/m
309.81 K, w2 = 0.5198	4.64 ± 0.3 mN/m and 4.63 ± 0.3 mN/m
311.24 K, w2 = 0.3286	4.61 ± 0.3 mN/m
311.26 K, w2 = 0.3752	4.45 ± 0.3 mN/m and 4.48 ± 0.3 mN/m
311.28 K, w2 = 0.7097	4.51 ± 0.3 mN/m
311.62 K, w2 = 0.2773	4.59 ± 0.3 mN/m and 4.55 ± 0.3 mN/m
311.74 K, w2 = 0.5186	4.38 ± 0.3 mN/m and 4.36 ± 0.3 mN/m
313.21 K, w2 = 0.374	4.26 ± 0.3 mN/m and 4.22 ± 0.3 mN/m
313.22 K, w2 = 0.2764	4.42 ± 0.3 mN/m
313.26 K, w2 = 0.7086	4.22 ± 0.3 mN/m
313.35 K, w2 = 0.5175	4.15 ± 0.3 mN/m and 4.17 ± 0.3 mN/m
313.51 K, w2 = 0.3271	4.32 ± 0.3 mN/m
315.28 K, w2 = 0.326	4.12 ± 0.3 mN/m and 4.13 ± 0.3 mN/m
315.3 K, w2 = 0.3728	4.06 ± 0.3 mN/m and 4.09 ± 0.3 mN/m
315.39 K, w2 = 0.7074	3.96 ± 0.3 mN/m
315.43 K, w2 = 0.2752	4.14 ± 0.3 mN/m and 4.13 ± 0.3 mN/m
315.61 K, w2 = 0.5159	3.88 ± 0.3 mN/m
317.24 K, w2 = 0.3247	3.88 ± 0.3 mN/m
317.3 K, w2 = 0.7064	3.7 ± 0.3 mN/m
317.43 K, w2 = 0.2742	3.91 ± 0.3 mN/m and 3.89 ± 0.3 mN/m
317.69 K, w2 = 0.5145	3.61 ± 0.3 mN/m and 3.63 ± 0.3 mN/m
318.29 K, w2 = 0.371	3.63 ± 0.3 mN/m and 3.62 ± 0.3 mN/m
319.25 K, w2 = 0.3234	3.64 ± 0.3 mN/m
319.52 K, w2 = 0.705	3.38 ± 0.3 mN/m
319.58 K, w2 = 0.273	3.7 ± 0.3 mN/m and 3.67 ± 0.3 mN/m
319.63 K, w2 = 0.3702	3.5 ± 0.3 mN/m
320 K, w2 = 0.5129	3.33 ± 0.3 mN/m and 3.32 ± 0.3 mN/m
321.27 K, w2 = 0.3692	3.29 ± 0.3 mN/m
321.3 K, w2 = 0.322	3.39 ± 0.3 mN/m and 3.38 ± 0.3 mN/m
321.31 K, w2 = 0.7039	3.12 ± 0.3 mN/m
321.42 K, w2 = 0.5118	3.13 ± 0.3 mN/m and 3.14 ± 0.3 mN/m
321.54 K, w2 = 0.2719	3.45 ± 0.3 mN/m and 3.42 ± 0.3 mN/m
323.2 K, w2 = 0.3207	3.23 ± 0.3 mN/m
323.5 K, w2 = 0.7025	2.88 ± 0.3 mN/m and 2.87 ± 0.3 mN/m
323.69 K, w2 = 0.2707	3.19 ± 0.3 mN/m
323.72 K, w2 = 0.5102	2.92 ± 0.3 mN/m
323.76 K, w2 = 0.3677	3.03 ± 0.3 mN/m and 3.01 ± 0.3 mN/m
325.23 K, w2 = 0.3193	3.04 ± 0.3 mN/m
325.29 K, w2 = 0.3668	2.85 ± 0.3 mN/m
325.3 K, w2 = 0.7013	2.63 ± 0.3 mN/m
325.42 K, w2 = 0.2697	2.96 ± 0.3 mN/m and 2.95 ± 0.3 mN/m
325.89 K, w2 = 0.5085	2.57 ± 0.3 mN/m and 2.59 ± 0.3 mN/m
327.16 K, w2 = 0.2688	2.8 ± 0.3 mN/m and 2.78 ± 0.3 mN/m
327.31 K, w2 = 0.3656	2.59 ± 0.3 mN/m and 2.58 ± 0.3 mN/m
327.31 K, w2 = 0.7	2.43 ± 0.3 mN/m and 2.44 ± 0.3 mN/m
327.4 K, w2 = 0.3179	2.74 ± 0.3 mN/m and 2.73 ± 0.3 mN/m
327.68 K, w2 = 0.5072	2.37 ± 0.3 mN/m and 2.38 ± 0.3 mN/m
329.3 K, w2 = 0.3166	2.54 ± 0.3 mN/m
329.34 K, w2 = 0.6987	2.15 ± 0.3 mN/m and 2.16 ± 0.3 mN/m
329.35 K, w2 = 0.5059	2.18 ± 0.3 mN/m and 2.19 ± 0.3 mN/m
329.37 K, w2 = 0.2676	2.6 ± 0.3 mN/m and 2.59 ± 0.3 mN/m
329.44 K, w2 = 0.3643	2.43 ± 0.3 mN/m
331.47 K, w2 = 0.5043	2.01 ± 0.3 mN/m
331.57 K, w2 = 0.315	2.24 ± 0.3 mN/m
331.61 K, w2 = 0.6971	1.87 ± 0.3 mN/m
331.65 K, w2 = 0.2663	2.36 ± 0.3 mN/m and 2.37 ± 0.3 mN/m
331.73 K, w2 = 0.3629	2.15 ± 0.3 mN/m
333.37 K, w2 = 0.2654	2.19 ± 0.3 mN/m
333.4 K, w2 = 0.3138	2.06 ± 0.3 mN/m
333.48 K, w2 = 0.3618	1.95 ± 0.3 mN/m
333.48 K, w2 = 0.6959	1.63 ± 0.3 mN/m
333.55 K, w2 = 0.5028	1.75 ± 0.3 mN/m and 1.72 ± 0.3 mN/m
